{
  "source": "patent US8309567B2",
  "about": "“Spiroindoline derivatives having insecticidal properties” (priority 2003, dated 2012)",
  "tested_on": "Spodoptera littoralis (Egyptian cotton leafworm)",
  "test": "Spodoptera littoralis cotton leaf disc spray test",
  "type": "in vivo",
  "conditions": "200 ppm sprayed on cotton leaf discs, L1 larvae, 3 days after treatment; mortality, repellent effect, feeding behaviour, growth regulation",
  "experimental": "This Example illustrates the pesticidal/insecticidal properties of compounds of formula (I). Test against were performed as follows:\nSpodoptera littoralis (Egyptian cotton leafworm)\nCotton leaf discs were placed on agar in a 24-well microtiter plate and sprayed with test solutions at an application rate of 200 ppm. After drying, the leaf discs were infested with 5 L1 larvae. The samples were checked for mortality, repellent effect, feeding behaviour, and growth regulation 3 days after treatment (DAT). The following compounds gave at least 80% control of Spodoptera littoralis: CIII-49.",
  "data": [
    {"smiles": "O=C(c1ccnc(Cl)c1)N1C[C@]2(CCN(C/C=C/c3ccc(Cl)cc3)C[C@H]2O)c2cc(Cl)ccc21", "note": "[CIII-49, 5-chloro-1-(2-chloropyridin-4-yl)carbonyl-1′-[trans-3-(4-chlorophenyl)allyl]-3′-hydroxy-spiro[indoline-3,4′-piperidine]]", "values": [
      {"measurement": "control of Spodoptera littoralis", "value": "at least 80%"}
    ]}
  ]
}
